Experimental data as given in paper PMC10334471, “Tumor-targeted dual-action NSAID-platinum(IV) anticancer prodrugs” (Inorganic Chemistry Frontiers, 2023).

How the values were obtained:
RKO = test: MTT assay, 72 h, RKO; assay type: cell-based; conditions: 72 h treatment, mean ± SD
Protocol: (§1) All cell cultures were grown at 37 °C in a humidified atmosphere containing 5% CO2. HCT116, RKO and HT-29 cells were cultured in McCoy's 5A Modified Media (Sigma-Aldrich, St. Louis, MO, USA) supplemented with 10% heat-inactivated fetal calf serum (FCS, PAA, Linz, Austria) and 2 mM glutamine (Sigma-Aldrich, St. Louis, MO, USA). The murine (Balb/c) colon cancer cell model CT26 (purchased from American Type Culture Collection, Manassas, VA, USA) were cultured in DMEM/F12 supplemented with 10% fetal calf serum (FCS). SW480 and Caco-2 cells were cultured in MEME media supplemented with 10% and 20% FCS, respectively. All cell culture media and reagents were purchased from Sigma-Aldrich Austria. […] The cells were regularly checked for Mycoplasma contamination.
(§2) Depending on their proliferation rate, cells were seeded at a density of 3500–5000 cells per well in 96-well microtiter plates and allowed to adhere overnight. […] Cell viability was determined using the 3-(4,5-dimethylthiazol-2-yl)-2,5-diphenyltetrazolium bromide (MTT) assay (EZ4U, Biomedia, Vienna, Austria) according to the manufacturer's recommendation. Depending on the metabolic capacity, the cell lines were incubated between one and three hours at 37 °C and subsequently absorbance was measured at 450 nm (620 nm as a reference) with a Tecan Reader infinite® M200Pro (Tecan Group Ltd, Switzerland). Data were analyzed using Graph Pad prism (version 8.0.1) by using the point-to-point function. […] Following, dose–response curves were calculated using the point-to-point function.

SW480 = test: MTT assay, 72 h, SW480; assay type: cell-based; conditions: 72 h treatment, mean ± SD
Protocol: as §1, §2

HT-29 = test: MTT assay, 72 h, HT-29; assay type: cell-based; conditions: for IC50: HT-29, MTT, 72 h treatment, mean ± SD
Protocol: as §1, §2

HCT116 = test: MTT assay, 72 h, HCT116; assay type: cell-based; conditions: 72 h treatment, mean ± SD
Protocol: as §1, §2

HCT116/OxR = test: MTT assay, 72 h, HCT116/OxR (oxaliplatin-resistant); assay type: cell-based; conditions: 72 h treatment, mean ± SD
Protocol: as §1, §2

CT26 (murine) = test: MTT assay, 72 h, CT26; assay type: cell-based; conditions: 72 h treatment, mean ± SD
Protocol: as §1, §2

CT26 allografts [1] = assay type: in vivo; conditions: oxaliplatin 9 mg kg^−1 i.v.
Protocol: (§3) All experiments were executed according to the regulation of the Ethics Committee for the Care and Use of Laboratory Animals at the Medical University Vienna. 8–12 weeks old BALB/c were kept in a pathogen-free environment with a 12 h light dark-cycle with ad libitum access to food and water. Every procedure was performed in a laminar airflow under sterile condition. Tumor growth and possible side effects of drug treatment were evaluated by daily recording the tumor size by caliper measurement according to the formula length × width^2/2 and parameters of the animal's overall health conditions.
(§4) CT26 cells (5 × 10^5 cells in 50 μl serum-free medium) were injected s.c. into the right flank of female BALB/c mice. […] Asa was treated orally using 50 mg kg^−1 in 5% DMSO/0.9% NaCl. Every day, the animals were monitored for the overall health conditions. Additionally, tumor size was measured. In case of a decreased body weight of ∼20% or ulcerated tumors, animals were sacrificed by cervical dislocation and tumors as well as organs were collected.

CT26 allografts [2] = tested on: CT26 allografts; design: method as in not given; conditions: reported MTD; ref not given; cited from earlier work
[3] = Stability in aqueous buffer pH 7.4 (HPLC); assay type: physicochemical; conditions: 1 mM, 250 mM phosphate buffer pH 7.4, 20 °C, 25 h, HPLC
Protocol: (§5) Phosphate buffer (250 mM, pH 7.4) containing 1 mM platinum compound was incubated at 20 °C, with and without the addition of 10 eq. L-ascorbic acid. […] A gradient of 5–95% over 5 minutes was used. To evaluate the current state of the reaction, the peak area of the parental complex was used.

[4] = Reduction kinetics with 10 eq. ascorbic acid (UHPLC); assay type: physicochemical; conditions: 1 mM, 250 mM phosphate buffer pH 7.4, 20 °C, 10 eq. ascorbic acid
Protocol: as §5

[5] = Released salicylic acid in serum of mice after single i.v. administration (UHPLC-MS); conditions: for Free salicylic acid in serum, share of administered dose: tumor-free Balb/c mice
Protocol: After 10 min, 1 h and 24 h blood was collected via the facial vein. Serum was isolated by centrifugation at 900 g for 10 min for two times and stored at −80 °C. Platinum content was detected by ICP-MS measurements, using an Agilent 7800 (Agilent Technologies, Tokyo, Japan) equipped with an Agilent SPS 4 autosampler (Agilent Technologies, Tokyo, Japan) and a MicroMist nebulizer. The Agilent MassHunter software package (Workstation Software, Version C.01.04, 2018) was used for data evaluation. The ICP-MS operation parameters are given in Table S1. ^† Salicylic acid was extracted and detected as described above.

Caco-2 = test: MTT assay, 72 h, Caco-2; assay type: cell-based; conditions: Caco-2, MTT, 72 h treatment, mean ± SD
Protocol: as §1, §2

[6] = tested on: colorectal cancer cell line panel; test: MTT assays, 72 h, whole panel comparison; assay type: cell-based; conditions: in most cell lines of the panel
Protocol: All cell cultures were grown at 37 °C in a humidified atmosphere containing 5% CO2. HCT116, RKO and HT-29 cells were cultured in McCoy's 5A Modified Media (Sigma-Aldrich, St. Louis, MO, USA) supplemented with 10% heat-inactivated fetal calf serum (FCS, PAA, Linz, Austria) and 2 mM glutamine (Sigma-Aldrich, St. Louis, MO, USA). The murine (Balb/c) colon cancer cell model CT26 (purchased from American Type Culture Collection, Manassas, VA, USA) were cultured in DMEM/F12 supplemented with 10% fetal calf serum (FCS). SW480 and Caco-2 cells were cultured in MEME media supplemented with 10% and 20% FCS, respectively. All cell culture media and reagents were purchased from Sigma-Aldrich Austria. […]
Depending on their proliferation rate, cells were seeded at a density of 3500–5000 cells per well in 96-well microtiter plates and allowed to adhere overnight. […] Cell viability was determined using the 3-(4,5-dimethylthiazol-2-yl)-2,5-diphenyltetrazolium bromide (MTT) assay (EZ4U, Biomedia, Vienna, Austria) according to the manufacturer's recommendation. Depending on the metabolic capacity, the cell lines were incubated between one and three hours at 37 °C and subsequently absorbance was measured at 450 nm (620 nm as a reference) with a Tecan Reader infinite® M200Pro (Tecan Group Ltd, Switzerland). Data were analyzed using Graph Pad prism (version 8.0.1) by using the point-to-point function. […]

[7] = Preliminary oral tolerability experiments in tumor-free mice; assay type: in vivo; conditions: 52.8 mg kg^−1 p.o.
From the text: It is well known that COX-2 is involved in the paracrine signaling between immune cells, resulting in a pro-tumorigenic tumor microenvironment.[10,33] Consequently, we got interested in the impact of the Asa ligand on the anticancer activity of the drugs in vivo. Therefore, we chose immune-competent murine colon cancer CT26 allografts as test system, which were characterized by high COX-2 expression (Fig. S4 ^†). […] Thus, the experiment was stopped on day 19 due to a distinct drop in body weight in these animals. As Asa is clinically applied p.o., we tested the efficacy of OxAsaOAc and asplatin in an oral application setting. […] For the therapy experiment, the animals were treated with OxAsaOAc and asplatin for five subsequent days over two weeks. […] Consequently, we concluded that the drug doses reaching the tumor in these therapy settings were insufficient, which prompted us to aim for carrier systems with enhanced tumor-targeting properties.

CT26 allografts [8] = test: Oral anticancer activity in CT26 allografts; assay type: in vivo, Balb/c mice; conditions: OxAsaOAc 52.8 mg kg^−1 p.o., five subsequent days over two weeks
Protocol: It is well known that COX-2 is involved in the paracrine signaling between immune cells, resulting in a pro-tumorigenic tumor microenvironment.[10,33] Consequently, we got interested in the impact of the Asa ligand on the anticancer activity of the drugs in vivo. […] As Asa is clinically applied p.o., we tested the efficacy of OxAsaOAc and asplatin in an oral application setting. […] For the therapy experiment, the animals were treated with OxAsaOAc and asplatin for five subsequent days over two weeks.
as §3

albumin = biological target: T1, albumin (Bos taurus, UniProt P02769); test: Albumin binding in fetal calf serum by SEC-ICP-MS; assay type: in vitro ADME; conditions: 100 μM in FCS (150 mM phosphate buffer, pH 7.4), 37 °C, up to 6 h
T1 construct: Fetal calf serum was purchased from Sigma-Aldrich and buffered with 150 mM phosphate pH 7.4; tissue Sigma-Aldrich; host or cells: fetal calf serum
T1 sequence (P02769 25-607): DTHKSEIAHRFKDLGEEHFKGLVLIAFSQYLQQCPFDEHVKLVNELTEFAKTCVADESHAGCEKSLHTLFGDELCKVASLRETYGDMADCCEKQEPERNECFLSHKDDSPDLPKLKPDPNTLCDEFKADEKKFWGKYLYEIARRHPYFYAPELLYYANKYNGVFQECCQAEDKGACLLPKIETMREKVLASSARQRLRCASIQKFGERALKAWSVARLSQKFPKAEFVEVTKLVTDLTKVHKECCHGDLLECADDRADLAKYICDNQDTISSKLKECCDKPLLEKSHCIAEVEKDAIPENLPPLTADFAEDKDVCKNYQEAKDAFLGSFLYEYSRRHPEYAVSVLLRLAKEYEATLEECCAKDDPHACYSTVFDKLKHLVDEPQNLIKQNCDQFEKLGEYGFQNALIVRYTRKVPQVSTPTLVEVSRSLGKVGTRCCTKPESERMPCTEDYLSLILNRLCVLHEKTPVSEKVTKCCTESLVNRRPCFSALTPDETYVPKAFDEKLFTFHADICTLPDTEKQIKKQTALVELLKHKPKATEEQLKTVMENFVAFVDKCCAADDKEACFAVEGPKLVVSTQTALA
Protocol: Fetal calf serum was purchased from Sigma-Aldrich and buffered with 150 mM phosphate pH 7.4 in order to guarantee a stable pH. The platinum(IV) complexes (5 mM) were dissolved in 150 mM phosphate buffer (pH 7.4) and diluted 1 : 50 in the buffered serum to obtain a final concentration of 100 μM. The samples were then incubated in the autosampler at 37 °C and analyzed every 1 h for 6 h. Between each sample a pure water blank was measured. For SEC-ICP-MS measurements an Agilent 1260 Infinity system coupled to an Agilent 7800 ICP-MS equipped with a dynamic reaction cell was used. Oxygen (purity 5.5, Messer Austria GmbH, Gumpoldskirchen, Austria) was used as reaction gas.

CT26 allografts [9] = test: Anticancer activity i.v. in CT26-bearing mice; assay type: in vivo, Balb/c mice; conditions: i.v., 4-times over 2 weeks, doses equimolar to 9 mg kg^−1 oxaliplatin
Protocol: as §3, §4

Q: Which results are given for `O=C1[O][Pt]2([NH][C@@H]3CCCC[C@H]3[NH]2)[O]C1=O` [Oxaliplatin, oxaliplatin]?
A: IC50 (RKO): 0.4 ± 0.04 µM; IC50 (SW480): 1 ± 0.2 µM; IC50 (HT-29): 5.3 ± 1.2 µM; IC50 (HCT116): 0.8 ± 0.1 µM; IC50 (HCT116/OxR): 27.8 ± 5.2 µM; IC50 (CT26 (murine)): 1.8 ± 0.2 µM; Response of tumor model (tumor growth) (CT26 allografts [1]): responsiveness; MTD (CT26 allografts [2]): 9 mg/kg

Q: What does the source list for `CC(=O)Oc1ccccc1C(=O)[O][Pt-2]12([O]C(C)=O)([NH2+][C@@H]3CCCC[C@H]3[NH2+]1)[O]C(=O)C(=O)[O]2` [OxAsaOAc, (OC-6-44)-acetato(2-acetoxybenzoato)[(1R,2R)-1,2-cyclohexanediamino]oxalatoplatinum(IV)]?
A: Stability in aqueous solution [3]: high stability; Intact complex after 6 h ([4]; 6 h): 92%; Intact complex after 24 h ([4]; 24 h): 53%; Free salicylic acid in serum, share of administered dose ([5]; 10 min after single i.v. dose equimolar to 9 mg kg^−1 oxaliplatin): < 5 mol%; Free salicylic acid in serum, share of administered dose ([5]; 1 h after single i.v. dose equimolar to 9 mg kg^−1 oxaliplatin): < 5 mol%; Salicylic acid level in serum ([5]; 24 h after single i.v. dose equimolar to 9 mg kg^−1 oxaliplatin, below LOD): < 3 µM; IC50 (Caco-2): 17.9 ± 2.1 µM; IC50 (RKO): 4.3 ± 0.4 µM; IC50 (SW480): 11.2 ± 1.3 µM; Fold higher activity than Ox(OAc)2 (HT-29; HT29 cells): 4 fold; IC50 (HT-29): 32.7 ± 5.5 µM; IC50 (HCT116): 9.9 ± 1.5 µM; IC50 (HCT116/OxR): 42.8 ± 4.3 µM; IC50 (CT26 (murine)): 12.8 ± 0.8 µM; Fold more active than Ox(OAc)2 [6]: about 2 fold; Tolerability [7]: well tolerable; Impact on tumor growth (CT26 allografts [8]): none of the drugs had any impact on tumor growth; Binding to albumin (or any other protein) (albumin): < 5%; Tolerability (body weight) (CT26 allografts [9]): well tolerated; Anticancer activity (tumor growth, overall survival) (CT26 allografts [9]; CT26): significant impact on both tumor growth as well as overall survival
